Data set [1] deals with T1, mHspAT (Mycobacterium tuberculosis, UniProt P9WML7).
T1 construct: gene hisC; recombinant, vector pYUB1062, over-expressed in M. smegmatis mc2 4517; homodimer
It is filed as biochemical. The note with it: pH 8.4, 37 °C.

For data set [2], the target named is T1, mHspAT. It is filed as binding.
The target in data set [3] is T2, mArAT (Mycobacterium tuberculosis, UniProt P9WML5).
T2 construct: gene pat

In data set [4] the target is T2, mArAT. This is another data set of the same source.
The subject of a further data set is N[C@@H](Cc1ccccc1)C(=O)O. Briefly: purified protein. The note with it: pH 8.4; 37.0 °C.
Data set [5] concerns N[C@H](COP(=O)(O)O)Cc1c[nH]cn1. Briefly: purified protein. The following applies: pH 8.4; 37.0 °C.

T2 sequence (P9WML5 whole entry): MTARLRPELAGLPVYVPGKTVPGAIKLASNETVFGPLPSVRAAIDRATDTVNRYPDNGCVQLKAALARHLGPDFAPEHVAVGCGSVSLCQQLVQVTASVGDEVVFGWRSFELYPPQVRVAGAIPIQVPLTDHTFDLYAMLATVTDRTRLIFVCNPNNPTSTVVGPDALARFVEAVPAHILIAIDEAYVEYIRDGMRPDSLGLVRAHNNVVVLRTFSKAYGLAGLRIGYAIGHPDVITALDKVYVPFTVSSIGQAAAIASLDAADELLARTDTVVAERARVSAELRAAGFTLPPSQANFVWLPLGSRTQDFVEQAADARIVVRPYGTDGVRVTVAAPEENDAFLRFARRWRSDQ
T1 sequence (P9WML7 whole entry): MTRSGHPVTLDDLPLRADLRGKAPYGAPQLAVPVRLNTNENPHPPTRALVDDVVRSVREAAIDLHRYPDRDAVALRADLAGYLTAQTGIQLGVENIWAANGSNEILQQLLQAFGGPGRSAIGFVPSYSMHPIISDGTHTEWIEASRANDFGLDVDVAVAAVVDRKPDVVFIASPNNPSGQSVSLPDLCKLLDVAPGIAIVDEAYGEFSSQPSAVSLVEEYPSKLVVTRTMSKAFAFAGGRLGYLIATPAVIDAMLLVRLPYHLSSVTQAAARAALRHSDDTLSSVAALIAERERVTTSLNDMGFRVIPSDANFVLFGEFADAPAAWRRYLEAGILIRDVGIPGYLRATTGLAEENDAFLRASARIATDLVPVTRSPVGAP

As to `O=S(=O)(O)CCN1CCOCC1` [MES], the “Vo'/Vo” value at mHspAT [1] is recorded as “concentration dependent inhibition of mHspAT-Hsp activity with MES”.
Take `Cc1ncc(COP(=O)(O)O)c(C=O)c1O` [PLP]: the “crystal structure, 2.05 Å” value on mHspAT [2] is reported as “binding of the PLP as an internal aldimine via a Schiff’s base with Lys232 Nζ”. The “crystal structure, 1.98 Å” value on mArAT [3] is given as “it exists as a PLP-Phe external aldimine intermediate complex in one of the monomers”.
For `Cc1ncc(COP(=O)(O)O)c(CN)c1O` [PMP], at mArAT [4], the “crystal structure, 1.95 Å” value was “In the active site of mArAT, indigenously bound PMP and succinate were modelled”.
Consider `N[C@@H](Cc1ccccc1)C(=O)O` [Phe], for which, at mArAT [3], the “crystal structure, 1.98 Å” value was “Phe is present in the active site of both the monomers of a homodimer”.
Take `O=C(O)CCC(=O)O` [succinate]: the “crystal structure, 1.95 Å” value on mArAT [4] is “In the dicarboxylate bound form, succinate exists as a non-covalently linked moiety”.
A word on the Km: it is the concentration of substrate that gives half-maximal velocity. By kcat/Km is commonly meant the turnover number divided by the Michaelis constant. For the molecule “mHspAT (Mycobacterium tuberculosis H37Rv)”, in the data set with N[C@@H](Cc1ccccc1)C(=O)O, the Km is recorded as 7.1 ± 0.81 mM and the specificity constant (kcat/Km) is 30000 ± 3000 M⁻¹ s⁻¹. Besides, in data set [5], the Km was 0.42 ± 0.02 mM and the catalytic efficiency (kcat/Km) worked out at 1.02e+06 ± 87000 M⁻¹ s⁻¹.
